Literature values as cited in patent EP3808777A1, “STABLE LIQUID ANTIBODY FORMULATIONS” (Glenmark Specialty S.A., priority 2019, dated 2021).

For `N=C(N)NCCC[C@H](N)C(=O)O` [Arginine], the pKa values is listed as 1.82.
In the case of `N[C@@H](Cc1c[nH]cn1)C(=O)O` [L-hisitidine], the effective buffering range (pH range) is given as 5.5-7.4.
In the case of `NCCCC[C@H](N)C(=O)O` [Lysine], the pKa values is listed as 9.06.
